Data on 35 compounds can be found in US6242494A, “Substituted β-amino acid inhibitors of methionine aminopeptidase-2” (Abbott Laboratories, priority 1999, dated 2001).

In the assay the target is T1, methionine aminopeptidase-2 (MetAP2) (Homo sapiens, UniProt P50579).
T1 construct: made in house; host or cells: insect cells, baculovirus system (secreted, purified from culture supernatant)
As to the kind of experiment: Inhibition of MetAP2 enzyme activity (96-well, Met-Ala-Ser substrate, L-amino acid oxidase/peroxidase/ortho-dianisidine, 450 nm). In kind it is biochemical. The conditions noted are these: pH 7.4, Met-Ala-Ser substrate, 20 minutes.

The mark [1] stands for this setting: IC50, recombinant MetAP2 4 μg/mL.

SMILES strings stand for the structures. pIC50: −log10 of the molar value. Structures can show the parent of a compound that is named as a salt.

T1 sequence (P50579 whole entry): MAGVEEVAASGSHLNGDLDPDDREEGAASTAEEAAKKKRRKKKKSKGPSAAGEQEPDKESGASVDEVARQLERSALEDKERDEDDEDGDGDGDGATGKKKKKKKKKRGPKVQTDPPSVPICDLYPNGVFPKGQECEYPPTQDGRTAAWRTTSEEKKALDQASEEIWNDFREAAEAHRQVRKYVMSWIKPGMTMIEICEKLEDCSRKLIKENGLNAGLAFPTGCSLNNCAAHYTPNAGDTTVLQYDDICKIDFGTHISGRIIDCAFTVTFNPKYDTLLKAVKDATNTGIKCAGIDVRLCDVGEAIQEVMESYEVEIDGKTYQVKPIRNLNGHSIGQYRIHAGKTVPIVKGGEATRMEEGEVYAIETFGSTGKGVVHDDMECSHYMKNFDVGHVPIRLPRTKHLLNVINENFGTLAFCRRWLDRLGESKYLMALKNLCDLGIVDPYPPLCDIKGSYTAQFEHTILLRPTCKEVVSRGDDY

Take `N[C@H](CC1CCCCC1)C(O)C(=O)NCCc1cccc(Cl)c1` (mixture of isomers) [Example 199, (2RS,3R)-3-amino-N-(3-chlorophenethyl)-4-cyclohexyl-2-hydroxybutanamide hydrochloride]: the pIC50 under setting [1] was 6.00.
In the case of `N[C@H](CC1CCCCC1)C(O)C(=O)Nc1cccc(OC(F)(F)F)c1` (mixture of isomers) [Example 170, (2RS,3R)-3-amino-4-cyclohexyl-2-hydroxy-N-(3-(trifluoromethoxy)phenyl)butanamide hydrochloride], under setting [1], the pIC50 is 6.00.
Turning to `COc1ccc(CCNC(=O)C(O)[C@H](N)CCSC)cc1` (mixture of isomers) [Example 8, (2RS,3R) N-(2-(4-methoxyphenyl)ethyl)-3-amino-2-hydroxy-5-(methylthio)pentanamide hydrochloride], the pIC50 under setting [1] is 5.64.
On the same count and under the same terms, for `CC(NC(=O)C(O)[C@H](N)CC1CCCCC1)C12CC3CC(CC(C3)C1)C2` (mixture of isomers) [Example 233, (2RS,3R)-N-(1-(1-adamantyl)ethyl)-3-amino-4-cyclohexyl-2-hydroxybutanamide Hydrochloride] the value was 5.57; for `CSCC[C@@H](N)C(O)C(=O)NCCc1ccccc1` (stereo partly drawn) [Example 5, (2RS,3R)-N-((2-phenylethyl)-3-amino-2-hydroxy-5-(methylthio)pentanamide hydrochloride], 5.59; for `CC(=O)Nc1ccc(S(=O)(=O)NCCCCNC(=O)C(O)[C@H](N)CC2CCCCC2)cc1` (stereo partly drawn) [Example 86, (2RS,3R)-N-(4-(((4-(acetylamiono)phenyl)sulfonyl)amino)butyl)-3-amino-4-cyclohexyl-2-hydroxybutanamide hydrochloride], 5.77.
On the same count and under the same terms, the same measure for `N[C@H](CC1CCCCC1)C(O)C(=O)NCCNC(=O)OCc1ccccc1` (some centres unmarked) [Example 78, hydrochloride]: 5.74.
The same measure, in the same setting: the same measure for `N[C@H](CC1CCCCC1)C(O)C(=O)NC1CCCC1` (mixture of isomers) [Example 207, (2RS,3R)-3-amino-4-cyclohexyl-N-cyclopentyl-2-hydroxybutanamide Hydrochloride]: 5.39; for `CCNC(=O)[C@H](C)NC(=O)C(O)[C@H](N)CCSC` (stereo partly drawn) [Example 3, (2RS,3R,1'S)-N-((1-Ethylcarboxamido)ethyl)-3-amino-2-hydroxy-5-(methylthio)pentanamide hydrochloride]: 5.00.
As for `N[C@H](CC1CCCCC1)C(O)C(=O)Nc1cccc(C(F)(F)F)c1` (mixture of isomers) [Example 151, (2RS,3R)-3-amino-4-cyclohexyl-2-hydroxy-N-(3-(trifluoromethyl)phenyl)butanamide], the pIC50 under setting [1] was 6.37.
As for `CSCC[C@@H](N)C(O)C(=O)NCCCc1ccccc1` (stereo partly drawn) [Example 6, (2RS,3R)-N-((3-phenylpropyl)-3-amino-2-hydroxy-5-(methylthio)pentanamide hydrochloride], under setting [1], the pIC50 was 5.52.
Same read-out and setting: for `N[C@H](CC1CCCCC1)C(O)C(=O)NCc1cccc(OC(F)(F)F)c1` (mixture of isomers) [Example 236, (2RS,3R)-3-amino-4-cyclohexyl-2-hydroxy-N-(3-(trifluoromethoxy)benzyl)butanamide Hydrochloride] the value was 5.72.
Regarding `CCCC[C@H](NC(=O)C(O)[C@H](N)CC1CCCCC1)C(=O)OC` (stereo partly drawn) [Example 129, methyl (2RS,3R,2'S)-2-((3-amino-4-cyclohexyl-2-hydroxybutanoyl)amino)hexanoate hydrochloride], for the setting “recombinant MetAP2 4 μg/mL”, the pIC50 is 4.57.
On to `COc1cc(Nc2ccccc2)ccc1NC(=O)C(O)[C@H](N)CC1CCCCC1` (mixture of isomers) [Example 174, (2RS,3R)-3-amino-N-(4-anilino-2-methoxyphenyl)-4-cyclohexyl-2-hydroxybutanamide hydrochloride], for which the pIC50 under setting [1] was 5.82.
Still for that read-out and setting: for `CC(Cc1ccccc1F)NC(=O)C(O)[C@H](N)CC1CCCCC1` (mixture of isomers) [Example 226, (2RS,3R)-3-amino-4-cyclohexyl-N-(2-(2-fluorophenyl)-1-methylethyl)-2-hydroxybutanamide Hydrochloride] the value was 6.01.
For the compound `COc1cc(OC)c(NC(=O)C(O)[C@H](N)CC2CCCCC2)cc1Cl` (mixture of isomers) [Example 180, (2RS,3R)-3-amino-N-(5-chloro-2,4-dimethoxyphenyl)-4-cyclohexyl-2-hydroxybutanamide hydrochloride], the pIC50 under setting [1] is 5.70.
For `N[C@H](CC1CCCCC1)C(O)C(=O)NCc1ccc(Cl)cc1Cl` (stereo partly drawn) [Example 97, (2RS,3R)-3-Amino-4-cyclohexyl)-N-(2,4-dichlorobenzyl)-2-hydroxybutanamide Hydrochloride], the pIC50 under setting [1] is 5.52.
Same read-out and setting: for `CC(C)CC(C)NC(=O)C(O)[C@H](N)CC1CCCCC1` (mixture of isomers) [Example 231, (2RS,3R)-3-amino-4-cyclohexyl-N-(1,3-dimethylbutyl)-2-hydroxybutanamide Hydrochloride] the value was 5.60; for `N[C@H](CC1CCCCC1)C(O)C(=O)NCCc1ccc(Br)cc1` (mixture of isomers) [Example 201, (2RS,3R)-3-amino-N-(4-bromophenethyl)-4-cyclohexyl-2-hydroxybutanamide Hydrochloride], 6.15; for `C[C@H](NC(=O)C(O)[C@H](N)CC1CCCCC1)C(=O)NCCNc1ccc([N+](=O)[O-])cn1` (stereo partly drawn) [Example 62, ((2RS,3R)-3-amino-2-hydroxy-4-cyclohexyl)butanoyl-L-alanyl-(5-nitropyridylaminoethyl)amide dihydrochloride], 5.12.
Take `N[C@H](CC1CCCCC1)C(O)C(=O)NC1C2CC3CC(C2)CC1C3` (mixture of isomers) [Example 203, (2RS,3R)-N-(2-adamantyl)-3-amino-4-cyclohexyl-2-hydroxybutanamide Hydrochloride]: the pIC50 under setting [1] is 5.31.
Same read-out and setting: for `N[C@H](CC1CCCCC1)C(O)C(=O)Nc1cc(Cl)cc(Cl)c1` (mixture of isomers) [Example 112, (2RS,3R)-3-Amino-4-cyclohexyl-N-(3,5-dichlorophenyl)-2-hydroxybutanamide Hydrochloride] the value was 5.82; for `N[C@H](CC1CCCCC1)C(O)C(=O)N[C@@H](CO)C(=O)OCc1cccc(OC(F)(F)F)c1` (stereo partly drawn) [Example 141, 3-(trifluoromethoxy)benzyl (2RS,3R,2'S)-2-((3-amino-4-cyclohexyl-2-hydroxybutanoyl)amino)-3-hydropropanoate trifluoroacetate], 5.43.
With `C[C@H](NC(=O)C(O)[C@H](N)CC1CCCCC1)C(=O)Nc1ncc(Br)s1` (stereo partly drawn) [Example 70, ((2RS,3R)-3-amino-2-hydroxy-4-cyclohexyl)butanoyl-L-alanyl-(5-bromothizole-2)amide hydrochloride], under setting [1], the pIC50 is 5.27.
On the same count and under the same terms, for `C[C@H](NC(=O)C(O)[C@H](N)CC1CCCCC1)C(=O)OCc1ccc(C(C)(C)C)cc1` (stereo partly drawn) [Example 93, (2RS,3R)-3-Amino-2-hydroxy-4-cyclohexyl)butanoyl-L-alanine 4-tert-butylbenzyl Ester Hydrochloride] the value was 5.27; for `C[C@H](NC(=O)C(O)[C@H](N)CC1CCCCC1)C(=O)OCc1ccc(C(F)(F)F)cc1` (stereo partly drawn) [Example 95, (2RS,3R)-3-Amino-2-hydroxy-4-cyclohexyl)butanoyl-L-alanine 4-trifluoromethylbenzyl Ester Hydrochloride], 5.28.
With `Cc1ncc([N+](=O)[O-])n1CCNC(=O)[C@H](C)NC(=O)C(O)[C@H](N)CC1CCCCC1` (stereo partly drawn) [Example 61, ((2RS,3R)-3-amino-2-hydroxy-4-cyclohexyl)butanoyl-L-alanyl-(2-methyl-5-nitroimidazolyl-ethyl)amide hydrochloride], the pIC50 under setting [1] was 4.89.
On the same count and under the same terms, for `COc1ccc(-c2ccccc2)cc1NC(=O)C(O)[C@H](N)CC1CCCCC1` (mixture of isomers) [Example 221, (2RS,3R)-3-amino-4-cyclohexyl-2-hydroxy-N-(4-methoxy(1,1'-biphenyl)-3-yl)butanamide Hydrochloride] the value was 5.27; for `N[C@H](CC1CCCCC1)C(O)C(=O)Nc1ccc(Cl)c(Cl)c1` (mixture of isomers) [Example 153, (2RS,3R)-3-amino-4-cyclohexyl-N-(3,4-dichlorophenyl)-2-hydroxybutanamide], 6.43.
Turning to `CCSCC[C@@H](NC(=O)CO)C(O)C(=O)NCCCCc1ccccc1` (some centres unmarked) [Example 40, hydrochloride], under setting [1], the pIC50 was 4.09.
On to `N[C@H](CC1CCCCC1)C(O)C(=O)Nc1ccc2c(c1)OCCO2` (mixture of isomers) [Example 222, (2RS,3R)-3-amino-4-cyclohexyl-N-(2,3-dihydro-1,4-benzodioxin-6-yl)-2-hydroxybutanamide Hydrochloride], for which the pIC50 under setting [1] is 6.70.
Still for that read-out and setting: for `CC(C)(C)C1CCC(NC(=O)C(O)[C@H](N)CC2CCCCC2)CC1` (mixture of isomers) [Example 111, (2RS,3R)-3-Amino-N-(4-(tert-butyl)cyclohexyl)-4-cyclohexyl-2-hydroxybutanamide Hydrochloride] the value was 5.09; for `CC(C)COCCCNC(=O)C(O)[C@H](N)CC1CCCCC1` (mixture of isomers) [Example 214, (2RS,3R)-3-amino-4-cyclohexyl-2-hydroxy-N-(3-isobutoxypropyl)butanamide Hydrochloride], 5.55; for `CCOC(=O)[C@H](C)NC(=O)C(O)[C@H](N)Cc1ccccc1` (stereo partly drawn) [Example 26, (2RS,3R,1'S)-N-((1-ethoxycarbonyl)ethyl)-3-amino-2-hydroxy-4-phenyl-butanamide hydrochloride], 5.33.
Take `COc1ccccc1CCNC(=O)C(O)[C@H](N)CC1CCCCC1` (mixture of isomers) [Example 197, (2RS,3R)-3-amino-4-cyclohexyl-2-hydroxy-N-(2-methoxyphenethyl)butanamide hydrochloride]: the pIC50 under setting [1] was 6.24.
